The text below walks through data of patent US8895637B2, “Environment-friendly antifoulants for the prevention of biofouling” (University of North Texas Health Science Center at Fort …, priority 2007, dated 2014).

Where two headings read alike, the source gives them in different places.

The subject of data set [1] is zebra mussels (Dreissena polymorpha).
The conditions of data set [2]: mixed with paint applied to a surface or applied as a dust; cited from earlier work.
The subject of data set [3] is zebra mussel. As to conditions: controlled laboratory setting; cited from earlier work.
Data set [4] has as its system Daphnia magna (water flea). Description: non-target organism screening, Daphnia cumulative mortality. Format: in vivo. As to conditions: for lethal effect / toxicity towards non-target (Daphnia) organism: at a dose that totally prevents fouling by mussels; for toxicity to other non-target organisms (water fleas, Daphnia magna): summary statement. Here is the method:
Those compounds that were determined to be highly efficacious zebra mussel antifoulants with little or no toxicity were additionally assessed for toxicity in another non-target aquatic species. The freshwater cladoceran crustacean Daphnia magna (water flea) is commonly utilized for aquatic toxicity testing (Suedel et al., 1997), with 10,583 tests of toxic end points being reported for this species on the USEPA ECOTOX web site. Three replicates of 20 adult specimens of D. magna were exposed to each compound employing a dose range that was the same or greater than that used in zebra mussel antifouling studies. The conditions for toxicity testing of water fleas were the same as those used for testing zebra mussel antifouling and toxicity (i.e., polypropylene containers at 15° C.), except that test medium volume was 40 ml and exposure was increased to three days. Dead individuals were removed every 24 h and the total number of surviving individuals was recorded at the end of 1, 2, and 3 days. Although the level of Daphnia mortality was too low in most cases, when it was high enough to be reliably estimated then the Daphnia lethal dose values (i.e., LD50) were estimated using the same methods employed in the mussel byssal attachment studies. Uniformity of test organisms was maintained by establishing a laboratory D. magna culture with specimens initially purchased from a biological supply company.

In data set [5] the target is vanilloid receptor 1 (VR1) receptor (Homo sapiens, UniProt Q8NER1). To be noted: cited from earlier work.
vanilloid receptor 1 (VR1) receptor, sequence (Q8NER1 whole entry, species assumed): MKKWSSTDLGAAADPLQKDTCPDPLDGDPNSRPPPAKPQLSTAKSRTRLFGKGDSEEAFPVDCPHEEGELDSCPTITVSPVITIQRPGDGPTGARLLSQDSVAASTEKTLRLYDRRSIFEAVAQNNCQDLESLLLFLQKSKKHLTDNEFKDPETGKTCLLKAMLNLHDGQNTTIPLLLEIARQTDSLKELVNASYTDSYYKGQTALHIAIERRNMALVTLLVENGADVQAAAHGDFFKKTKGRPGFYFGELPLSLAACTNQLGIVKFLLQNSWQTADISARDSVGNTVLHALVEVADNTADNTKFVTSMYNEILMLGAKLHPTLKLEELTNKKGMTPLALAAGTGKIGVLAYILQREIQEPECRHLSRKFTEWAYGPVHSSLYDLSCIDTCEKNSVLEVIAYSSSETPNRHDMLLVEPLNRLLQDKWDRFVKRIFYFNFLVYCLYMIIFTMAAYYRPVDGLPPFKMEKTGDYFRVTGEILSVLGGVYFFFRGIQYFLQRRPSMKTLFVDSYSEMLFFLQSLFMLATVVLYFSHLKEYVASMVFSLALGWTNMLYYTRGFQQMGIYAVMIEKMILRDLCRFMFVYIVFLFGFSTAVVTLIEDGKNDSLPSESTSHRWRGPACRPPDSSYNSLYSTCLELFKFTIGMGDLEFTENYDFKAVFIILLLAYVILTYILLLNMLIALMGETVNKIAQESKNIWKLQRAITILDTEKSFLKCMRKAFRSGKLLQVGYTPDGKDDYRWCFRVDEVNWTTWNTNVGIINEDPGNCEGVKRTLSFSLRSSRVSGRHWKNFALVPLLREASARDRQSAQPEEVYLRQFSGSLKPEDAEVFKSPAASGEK
Where [6] appears, read: single high concentration (e.g., 30 μM), 48 h, FIG. 4 and FIG. 6.
Where [7] appears, read: single high concentration (e.g., 30 μM), second 48 h post-exposure / both periods.

Turning to `COc1cc(CNC(=O)CCCC/C=C/C(C)C)ccc1O` (racemic) [capsaicin, reference compound], in data set [1] (in vivo), the “residual effect to the target organism” value is recorded as “little residual effect”, the “toxicity to the target organism (zebra mussels)” value (“toxicity … (zebra mussels)” below) is recorded as “reduced toxicity” and the “zebra mussel antifouling efficacy” value was “efficacious”. Further, the “antifouling effectiveness compared with copper” value in data set [2] is recorded as “not as effective as copper”. The “zebra mussel antifoulant effect” value in data set [3] is recorded as “effective”. Moreover, in data set [4], the “lethal effect / toxicity towards non-target (Daphnia) organism” value is “no toxicity” and the “toxicity to other non-target organisms (water fleas, Daphnia magna)” value (“toxicity to other non-target organisms” below) is listed as “reduced toxicity”.
Regarding `COc1ccc(C(=O)c2c(C)n(CCN3CCOCC3)c3cc(I)ccc23)cc1` [AM630], in data set [1] (in vivo), the “antifouling efficacy (fraction of unattached mussels during the first 48 h)” value was “efficacious”, the “dose that totally prevents fouling by mussels” value was found to be 4 µM, the “residual effect to the target organism” value is “some residual effect” and the “target organism residual effects ("toxicity") or lethality” value (“target organism residual effects” below) is on record as “minimal”. Further, in data set [1] (in vivo), the “zebra mussel antifouling efficacy” value is “efficacious”. The “lethal effect / toxicity towards non-target (Daphnia) organism” value in data set [4] was “no significant lethality”.
On to `CCCCCCC(C)(C)c1ccc([C@@H]2C[C@H](O)CC[C@@H]2CCCO)c(O)c1` [CP55,940], for which, in data set [1] (setting [6]), the “antifouling efficacy (fraction of unattached mussels during the first 48 h)” value is “efficacious”. For the same compound, in data set [1] (setting [7]), the “target organism residual effects” value is “minimal”.
For `CCCCC/C=C\C/C=C\CCCCCCCC(=O)NCCO` [Linoleyl ethanolamide], in data set [1] (in vivo), the “antifouling efficacy (fraction of unattached mussels during the first 48 h)” value is listed as “efficacious” and the “target organism residual effects” value is given as “minimal”.
The corresponding values for `CCCCCCCCCC(=O)NC(CC)CO` (centres unmarked) [N-(1-(hydroxymethyl)propyl)decanamide] are “efficacious” and “minimal”.
On to `CCCCCCCCCCCC(=O)NCC(=O)NN=Cc1ccc(OC)c(OC)c1` [N-(2-(2-(3,4-dimethoxybenzylidene)hydrazine)-2-oxoethyl)dodecanamide], for which, in data set [1] (in vivo), the “antifouling efficacy (fraction of unattached mussels during the first 48 h)” value is on record as “efficacious” and the “target organism residual effects” value was “minimal”.
For the compound `CC1=CC[C@H]2[C@@H](C1)c1c(O)cc(CC#CCCCNS(C)(=O)=O)cc1OC2(C)C` [O-2050], in data set [1] (6 μM), the “residual effect at a dose that totally prevents biofouling” value is recorded as “no residual effect”. For the same compound, in data set [1] (in vivo), the “antifouling efficacy (fraction of unattached mussels during the first 48 h)” value is recorded as “efficacious”, the antifouling potency entry is on record as “higher potency”, the “dose that totally prevents fouling by mussels” value came to 6 µM and the “target organism residual effects” value is reported as “minimal”. Moreover, the “zebra mussel antifouling efficacy” value in data set [1] (in vivo) was “efficacious”. The “lethal effect / toxicity towards non-target (Daphnia) organism” value in data set [4] is “no lethal effect”.
In the case of `CCCCC/C=C\C/C=C\C/C=C\C/C=C\CCCC(=O)NCCO` [anandamide], in data set [1] (in vivo), the “antifouling efficacy (fraction of unattached mussels during the first 48 h)” value is “efficacious”, the “dose that totally prevents fouling by mussels” value was 15 µM, the “residual effect to the target organism” value is recorded as “no residual effect” and the “target organism residual effects” value is “minimal”. Also, in data set [1] (in vivo), the “toxicity … (zebra mussels)” value was “reduced toxicity” and the “zebra mussel antifouling efficacy” value is listed as “efficacious”. Further, in data set [4], the “lethal effect / toxicity towards non-target (Daphnia) organism” value is reported as “no lethal effect” and the “toxicity to other non-target organisms” value is recorded as “reduced toxicity”.
On to `COc1cc(CNC(=O)CCCC/C=C/C(C)C)ccc1O` [compound 28, 8-methyl-N-vanillyl-trans-6-nonenamide], for which, in data set [1] (in vivo), the “antifouling efficacy (fraction of unattached mussels during the first 48 h)” value was “efficacious” and the “target organism residual effects” value is given as “minimal”. Moreover, the “toxicity of the stereoisomer towards the non-target (Daphnia) organism” value in data set [4] (inferred from the result for racemic capsaicin) is “neither stereoisomer (E or Z) is toxic”.
Regarding `COc1cc(CNC(=O)CCCC/C=C\C(C)C)ccc1O` [compound 29], in data set [1] (in vivo), the “antifouling efficacy (fraction of unattached mussels during the first 48 h)” value is listed as “efficacious”, the “attachment of zebra mussels to aquatic striatum” value is given as “prevents the attachment”, the “target organism residual effects” value is reported as “minimal” and the “toxicity to the target organism” value is “non-toxic”. Also, in data set [5], the “action on the vanilloid receptor 1 (VR1) receptor” value is on record as “does not act on”.
Consider `CCCCC/C=C\C/C=C\C/C=C\C/C=C\CCCCOC(CO)CO` [noladin ether], for which, in data set [1] (setting [6]), the “antifouling efficacy (fraction of unattached mussels during the first 48 h)” value is on record as “efficacious”. The “target organism residual effects” value in data set [1] (setting [7]) was “minimal”.
On to `CCCCCCCCC(=O)NCc1ccc(O)c(OC)c1` [pseudocapsaicin, N-vanillylnonanamide], for which, in data set [1] (20 μM), the antifouling is 100%. The antifouling in data set [1] (30 μM) is 100%. Also, in data set [1] (in vivo), the “residual effect to the target organism” value is “little residual effect”, the “toxicity … (zebra mussels)” value was “reduced toxicity” and the “zebra mussel antifouling efficacy” value is “efficacious”. Moreover, in data set [4] (72 h exposure, 20 and 30 μM), the “Daphnia toxicity over controls” value is on record as “no measurable toxicity over controls”. In data set [4], the “lethal effect / toxicity towards non-target (Daphnia) organism” value is on record as “not lethal” and the “toxicity to other non-target organisms” value is “reduced toxicity”. Besides, the “lethal effect / toxicity towards non-target (Daphnia) organism” value in data set [4] (listed as N-vanillylnonanamide) is given as “no significant toxicity”. Further, the Daphnia mortality entry in data set [4] (highest test dose (60 μM), 72 h time point) is reported as “Statistically significant Daphnia mortality”.
